Biological target: Trypsin (Homo sapiens, UniProt P07477+P07478+P35030)
Assay: Inhibitory activity against human trypsin (using Chromozym TH as the substrate)
Type: protein assay

Q: With N=C(N)NNS(=O)(=O)c1ccc(NC(=O)[C@@H](Cc2ccccc2)NC(=O)OCc2ccccc2)cc1 as the compound, how does the Ki read?
A: 1315 nM

Q: How did the Ki turn out when N=C(N)NS(=O)(=O)c1c(F)c(F)c(F)c(F)c1F was run?
A: 1350 nM

Q: For COC(=N)NS(=O)(=O)c1ccc(I)cc1, which Ki is on record?
A: 1415 nM

Q: With COC(=N)NS(=O)(=O)c1c(C)cc(C)cc1C as the compound, how does the Ki read?
A: 1785 nM

Q: With N=C(N)NS(=O)(=O)c1cccc(N)c1 as the compound, how does the Ki read?
A: 1145 nM

Q: Which Ki does the source give for CN(C)c1ccc(/N=N/c2ccc(S(=O)(=O)NN=C(N)N)cc2)cc1 here?
A: 1355 nM

Q: N=C(N)NNS(=O)(=O)c1ccc(Cl)cc1 was tested. Which Ki did it give?
A: 1100 nM

Q: For N=C(N)NS(=O)(=O)c1ccc(F)cc1, which Ki is on record?
A: 1090 nM

Q: For COC(=N)NS(=O)(=O)c1ccccc1[N+](=O)[O-], which Ki is on record?
A: 2340 nM

Q: For N=C(N)NS(=O)(=O)c1ccc(C(=O)O)cc1, which Ki is on record?
A: 1235 nM

Q: How did the Ki turn out when COC(=N)NS(=O)(=O)c1ccc(/N=N/c2ccc(N(C)C)cc2)cc1 was run?
A: 1350 nM

Q: For Cc1ccc(S(=O)(=O)N=C(N)N)cc1, which Ki is on record?
A: 1810 nM

Q: Which Ki does the source give for N=C(N)NNS(=O)(=O)c1ccccc1C(=O)O here?
A: 1400 nM

Q: N=C(N)NNS(=O)(=O)c1ccc([N+](=O)[O-])cc1 was tested. Which Ki did it give?
A: 990 nM

Q: Which Ki does the source give for CN(C)c1cccc2c(S(=O)(=O)N=C(N)N)cccc12 here?
A: 1150 nM

Q: With N=C(N)NS(=O)(=O)C(F)(F)C(F)(F)C(F)(F)C(F)(F)C(F)(F)C(F)(F)C(F)(F)C(F)(F)F as the compound, how does the Ki read?
A: 1950 nM

Q: For N=C(N)NNS(=O)(=O)c1ccc(N)cc1, which Ki is on record?
A: 1425 nM

Q: How did the Ki turn out when N=C(N)NS(=O)(=O)c1ccc(Cl)cc1 was run?
A: 1170 nM

Q: How did the Ki turn out when Cc1ccc(S(=O)(=O)NC(=O)N[C@H](Cc2ccccc2)C(=O)Nc2ccc(S(=O)(=O)N=C(N)N)cc2)cc1 was run?
A: 1250 nM

Q: How did the Ki turn out when Cc1ccc(S(=O)(=O)NC(=O)N2CCC[C@H]2C(=O)NCC(=O)Nc2ccc(S(=O)(=O)NN=C(N)N)cc2)cc1 was run?
A: 1560 nM

Q: Which Ki does the source give for N=C(N)NS(=O)(=O)c1ccc(NC(=O)[C@@H](Cc2ccccc2)NC(=O)OCc2ccccc2)cc1 here?
A: 1285 nM

Q: COC(=N)NS(=O)(=O)c1ccc2ccccc2c1 was tested. Which Ki did it give?
A: 1445 nM

Q: How did the Ki turn out when COC(=N)NS(=O)(=O)c1c(Br)c(Br)c(Br)c(Br)c1C(=O)O was run?
A: 1300 nM

Q: How did the Ki turn out when N=C(N)NS(=O)(=O)c1cccs1 was run?
A: 1320 nM

Q: How did the Ki turn out when COC(=N)NS(=O)(=O)CC12CCC(CC1=O)C2(C)C (stereo not drawn) was run?
A: 1075 nM

Q: How did the Ki turn out when Cc1ccc(S(=O)(=O)NC(=O)NCC(=O)N[C@@H](Cc2c[nH]cn2)C(=O)Nc2ccc(S(=O)(=O)NN=C(N)N)cc2)cc1 was run?
A: 1555 nM

Q: For N=C(N)NS(=O)(=O)c1ccc(C(=N)N)cc1, which Ki is on record?
A: 450 nM

Q: With N=C(N)NNS(=O)(=O)c1ccc(Br)cc1 as the compound, how does the Ki read?
A: 1215 nM

Q: For N=C(N)NNS(=O)(=O)c1cccc(N)c1, which Ki is on record?
A: 1400 nM

Biological target: Prothrombin (Homo sapiens, UniProt P00734)
Assay: Inhibitory activity against human thrombin (using Chromozym TH as the substrate)

Q: For N=C(N)NNS(=O)(=O)c1ccc(NC(=O)[C@@H](Cc2ccccc2)NC(=O)OCc2ccccc2)cc1, which Ki is on record?
A: 50 nM

Q: With N=C(N)NS(=O)(=O)c1c(F)c(F)c(F)c(F)c1F as the compound, how does the Ki read?
A: 146 nM

Q: Which Ki does the source give for COC(=N)NS(=O)(=O)c1ccc(I)cc1 here?
A: 243 nM

Q: COC(=N)NS(=O)(=O)c1c(C)cc(C)cc1C was tested. Which Ki did it give?
A: 348 nM

Q: N=C(N)NS(=O)(=O)c1cccc(N)c1 was tested. Which Ki did it give?
A: 107 nM

Q: CN(C)c1ccc(/N=N/c2ccc(S(=O)(=O)NN=C(N)N)cc2)cc1 was tested. Which Ki did it give?
A: 139 nM

Q: N=C(N)NNS(=O)(=O)c1ccc(Cl)cc1 was tested. Which Ki did it give?
A: 212 nM

Q: With N=C(N)NS(=O)(=O)c1ccc(F)cc1 as the compound, how does the Ki read?
A: 240 nM

Q: How did the Ki turn out when COC(=N)NS(=O)(=O)c1ccccc1[N+](=O)[O-] was run?
A: 355 nM

Q: With N=C(N)NS(=O)(=O)c1ccc(C(=O)O)cc1 as the compound, how does the Ki read?
A: 104 nM

Q: With COC(=N)NS(=O)(=O)c1ccc(/N=N/c2ccc(N(C)C)cc2)cc1 as the compound, how does the Ki read?
A: 169 nM

Q: With Cc1ccc(S(=O)(=O)N=C(N)N)cc1 as the compound, how does the Ki read?
A: 290 nM

Q: For N=C(N)NNS(=O)(=O)c1ccccc1C(=O)O, which Ki is on record?
A: 205 nM

Q: N=C(N)NNS(=O)(=O)c1ccc([N+](=O)[O-])cc1 was tested. Which Ki did it give?
A: 166 nM

Q: With CN(C)c1cccc2c(S(=O)(=O)N=C(N)N)cccc12 as the compound, how does the Ki read?
A: 120 nM

Q: With N=C(N)NS(=O)(=O)C(F)(F)C(F)(F)C(F)(F)C(F)(F)C(F)(F)C(F)(F)C(F)(F)C(F)(F)F as the compound, how does the Ki read?
A: 360 nM

Q: Which Ki does the source give for N=C(N)NNS(=O)(=O)c1ccc(N)cc1 here?
A: 91 nM

Q: With N=C(N)NS(=O)(=O)c1ccc(Cl)cc1 as the compound, how does the Ki read?
A: 225 nM

Q: How did the Ki turn out when Cc1ccc(S(=O)(=O)NC(=O)N[C@H](Cc2ccccc2)C(=O)Nc2ccc(S(=O)(=O)N=C(N)N)cc2)cc1 was run?
A: 43 nM

Q: Which Ki does the source give for Cc1ccc(S(=O)(=O)NC(=O)N2CCC[C@H]2C(=O)NCC(=O)Nc2ccc(S(=O)(=O)NN=C(N)N)cc2)cc1 here?
A: 15 nM

Q: With N=C(N)NS(=O)(=O)c1ccc(NC(=O)[C@@H](Cc2ccccc2)NC(=O)OCc2ccccc2)cc1 as the compound, how does the Ki read?
A: 54 nM

Q: For COC(=N)NS(=O)(=O)c1ccc2ccccc2c1, which Ki is on record?
A: 147 nM

Q: For COC(=N)NS(=O)(=O)c1c(Br)c(Br)c(Br)c(Br)c1C(=O)O, which Ki is on record?
A: 239 nM

Q: With N=C(N)NS(=O)(=O)c1cccs1 as the compound, how does the Ki read?
A: 185 nM

Q: With COC(=N)NS(=O)(=O)CC12CCC(CC1=O)C2(C)C (stereo not drawn) as the compound, how does the Ki read?
A: 336 nM

Q: How did the Ki turn out when Cc1ccc(S(=O)(=O)NC(=O)NCC(=O)N[C@@H](Cc2c[nH]cn2)C(=O)Nc2ccc(S(=O)(=O)NN=C(N)N)cc2)cc1 was run?
A: 15 nM

Q: For N=C(N)NS(=O)(=O)c1ccc(C(=N)N)cc1, which Ki is on record?
A: 300 nM

Q: For N=C(N)NNS(=O)(=O)c1ccc(Br)cc1, which Ki is on record?
A: 203 nM

Q: For N=C(N)NNS(=O)(=O)c1cccc(N)c1, which Ki is on record?
A: 88 nM
